pEC50: −log10 of the molar value. Peptide text beside a SMILES is read from it. * marks the point of attachment. 5FAM = O=C1OC2(c3ccc(O)cc3Oc3cc(O)ccc32)c2ccc(C(=O)*)cc21
What was measured:
[1] = tested on: FZD7, FZD4, 5 or 6 receptors stably expressed in HEK293 cells; experiment: flow cytometry of cells stably expressing gD-FZD; format: binding; details: peptide 12.5 μM
Procedure: Cell lines stably expressing gD-FZD were grown to ˜80% confluence in DMEM:F12 (50:50) media supplemented with 10% FBS (cat. no. 1500-100; Seradigm), 1× GlutMAX (cat. no. 35050-061; Gibco) and G418 (200 μg/mL; cat. no. A1720; Sigma), released with 0.05% trypsin/EDTA in PBS (cat. no. 15400-054; Gibco), collected on ice and buffer exchanged into ice cold FACS buffer (0.5% BSA and 0.05% NaAz in PBS). 100,000 cells/well were plated into an ice cold U-bottomed plate (cat. no. 3799; Costar) and cells pelleted by centrifugation at 1200 rpm for 3 min. […] Data was collected with FACSDiva (BD; version 8.0.1) and analyzed using FLowJo (FlowJo, LLC; v10.1).
(§1) Selective targeting of the FZD7 receptor subclass was also observed chromatographically. […] See FIGS. 4A and 4B, which provide representative fluorescence traces of 1 μM 5FAM-Fz7-21 and 1 μM 5FAM-Fz7-21S, respectively, incubated with various FZD CRD-Fc proteins (250 nM) overnight at 4° C. prior to analysis by FSEC. […] In FIG. 24A, molecular weight (MW) standards analyzed by UV absorption were plotted as a function of elution volume (Ve) over void volume (Vo). […] Measured values represent the mean±standard deviation (SD) of three independent experiments. […] Binding to recombinant FZD3 and 6 CRDs could not be assessed due to challenges with the expression of these proteins.

[2] = tested on: human sFRP1, sFRP2, sFRP3, sFRP4, or sFRP5; experiment: FSEC with secreted Frizzled-related proteins; format: binding; details: sFRP ~250 nM, peptide 10 μM
Procedure: (§2) Fluorescence size-exclusion chromatography (FSEC) experiments were run using an AKTA FPLC system (General Electric Company) with UNICORN software package (version 5.31). Samples were resolved using a SEC3000 or SEC2000 (Phenomenex; Torrence, Calif.) column at 0.5 mL/min in phosphate buffer. Fluorescence was monitored using a FP-2020 Plus fluorescence detector (Jasco Analytical Instruments, Easton, Md.) in normal mode (excitation/emission, […]; gain=100; STD=32). All samples were prepared with a final DMSO concentration of 1% and incubated overnight at 4° C. prior to sample separation. FZD CRD-Fc samples were kept at ˜250 nM in the presence of excess 5FAM labeled peptide (1 μM). Human secreted Frizzled-related proteins were maintained at ˜250 nM in the presence of excess 5FAM-labeled peptide (10 μM). […]
For FIGS. 4C and 5C, values represent the mean±s.e.m. of three independent experiments. […] Samples were resolved using a SEC3000 column (Phenomenex; Torrence, Calif.) at 0.5 mL/min in phosphate buffer saline (PBS) and fluorescence was monitored with an FP-2020 Plus fluorescence detector (Jasco Analytical Instruments, Easton, Md.) using normal mode (excitation/emission […]); gain=100; STD=32. […] Molecular weights were determined by standards (BioRad catalogue number, 151-1901) run prior to sample runs.

FZD CRD-Fc = experiment: binding of 5FAM peptides to the FZD CRD-Fc panel
Procedure: Control experiments using 5FAM-Fz7-21S were performed in parallel. 5FAM-Fz7-21 or 5FAM-Fz721S was incubated with each of the aforementioned FZD CRD-Fcs overnight at 4° C. in PBS and resolved via SEC.
In FIGS. 3A-3I, 5FAM-Fz7-21 or 5FAM-Fz7-21S (50 nM in PBS) was incubated with increasing concentration of FZD CRD-Fc (2-fold serial dilutions), and fluorescence intensity was measured using either a Monolith NT.115 or NT.115Pico instrument (NanoTemper Technologies). EC50 values represent the 95% confidence interval of at least three independent experiments, excepting hFZD1 CRD-Fc+5FAM-Fz7-21S, which was done twice. EC50 ovalues were calculated with Prism Graphpad using the Log(agonist) vs. response [variable slope (four parameters) function: Y=Bottom+(Top-Bottom)/(1+10^((Log EC−X)*HillSlope))]. Plotted values represent the mean±s.e.m.

FZD CRD-Fc proteins = experiment: fluorescence size-exclusion chromatography (FSEC) with FZD CRD-Fc proteins; format: binding; details: 1 μM peptide, 250 nM FZD CRD-Fc, overnight at 4° C.; FZD1, FZD2 and FZD7 CRD-Fc
Procedure: as §2, with “μM).” for “μM). Human secreted Frizzled-related proteins were maintained at ˜250 nM in the presence of excess 5FAM-labeled peptide (10 μM).”
as §1, with “proteins. […]” for “proteins.”

Row | binding to sFRPs by FSEC [2] | binding (FZD CRD-Fc; FZD5, FZD8, FZD9 and FZD10 CRDs) | pEC50 (FZD CRD-Fc; hFZD1 CRD-Fc, hFZD2 CRD-Fc, hFZD7 CRD-Fc, and mFZD7 CRD-Fc, read-out: affinities) | binding (FZD CRD-Fc; any members of the FZD CRD family) | Structure (SMILES) | binding by flow cytometry analysis [1] | complex with FZD CRD-Fc resolved by FSEC (FZD CRD-Fc proteins)
1 | not found to bind | little to no binding | 6.94 to 7.41 |  | CSCC[C@H](NC(=O)[C@@H](NC(=O)[C@H](Cc1c[nH]cn1)NC(=O)[C@H](CS)NC(=O)[C@H](Cc1c[nH]c2ccccc12)NC(=O)[C@H](Cc1ccccc1)NC(=O)[C@H](CCC(=O)O)NC(=O)[C@H](CC(C)C)NC(=O)[C@H](CC(=O)O)NC(=O)[C@H](CC(=O)O)NC(=O)[C@H](CO)NC(=O)[C@@H]1CCCN1C(=O)[C@H](CC(C)C)NC(=O)c1ccc2c(c1)C(=O)OC21c2ccc(O)cc2Oc2cc(O)ccc21)C(C)C)C(=O)N[C@@H](Cc1ccc(O)cc1)C(N)=O [5FAM-Fz7-21] (5FAM-LPSDDLEFWCHVMY-NH2; N-terminus and C-terminus assumed) | predominant binding to FZD7 with minimal binding to FZD4, 5 or 6 receptors | could be resolved
2 | not found to bind |  |  | no detectable binding | CSCC[C@H](NC(=O)[C@@H](NC(=O)[C@H](Cc1c[nH]cn1)NC(=O)[C@H](CO)NC(=O)[C@H](Cc1c[nH]c2ccccc12)NC(=O)[C@H](Cc1ccccc1)NC(=O)[C@H](CCC(=O)O)NC(=O)[C@H](CC(C)C)NC(=O)[C@H](CC(=O)O)NC(=O)[C@H](CC(=O)O)NC(=O)[C@H](CO)NC(=O)[C@@H]1CCCN1C(=O)[C@H](CC(C)C)NC(=O)c1ccc2c(c1)C(=O)OC21c2ccc(O)cc2Oc2cc(O)ccc21)C(C)C)C(=O)N[C@@H](Cc1ccc(O)cc1)C(N)=O [5FAM-Fz7-21S] (5FAM-LPSDDLEFWSHVMY-NH2; N-terminus and C-terminus assumed) |  | no complex was observed
